In paper PMC6149712, “Anti-Allergic Activity of Monoacylated Ascorbic Acid 2-Glucosides” (Molecules : A Journal of Synthetic Chemistry and Natural …, 2017):
Counter-ions that a name gives are not always drawn.

Assays:
Format in all cases: biochemical
[1] = molecular target: T1, hyaluronidase type IV-S from a bovine testis (Bos taurus, UniProt Q2YDK3); assay: Morgan-Elson colorimetric hyaluronidase assay
T1 construct: gene SPAM1
T1 sequence (Q2YDK3 36-553): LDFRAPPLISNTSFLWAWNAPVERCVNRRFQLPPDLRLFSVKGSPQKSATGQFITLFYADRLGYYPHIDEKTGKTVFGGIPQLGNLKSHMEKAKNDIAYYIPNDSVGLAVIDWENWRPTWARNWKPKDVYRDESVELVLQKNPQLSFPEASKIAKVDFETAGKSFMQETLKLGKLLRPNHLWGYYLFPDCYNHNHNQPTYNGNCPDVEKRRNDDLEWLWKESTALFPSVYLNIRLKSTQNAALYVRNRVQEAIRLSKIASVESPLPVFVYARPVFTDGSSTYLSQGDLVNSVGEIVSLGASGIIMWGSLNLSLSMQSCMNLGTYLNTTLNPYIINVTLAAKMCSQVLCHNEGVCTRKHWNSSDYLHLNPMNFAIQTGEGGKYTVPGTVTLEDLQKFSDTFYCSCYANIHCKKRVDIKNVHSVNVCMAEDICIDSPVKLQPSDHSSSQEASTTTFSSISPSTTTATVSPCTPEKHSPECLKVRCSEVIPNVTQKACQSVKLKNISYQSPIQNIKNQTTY

[2] = molecular target: T1, hyaluronidase type IV-S from a bovine testis; assay: Morgan-Elson colorimetric hyaluronidase assay; remark: listed apart in the source
[3] = molecular target: T1, hyaluronidase type IV-S from a bovine testis; assay: Morgan-Elson colorimetric hyaluronidase assay, positive control

Row | Compound | IC50 [1] [µM] | Morgan-Elson colorimetric hyaluronidase assay [2] | other results
1 | CCCCCCCCCCCCCCCC(=O)OC[C@H](O)[C@H]1OC(=O)C(O[C@@H]2O[C@H](CO)[C@@H](O)[C@H](O)[C@H]2O)=C1O [6-sPalm-AA-2βG, 2-O-β-D-glucopyranosyl-6-O-hexadecanoyl-L-ascorbic acid] | 25 |  | 
2 | CCCCCCCC(CCCCCCC)C(=O)OC[C@H](O)[C@H]1OC(=O)C(O[C@H]2O[C@H](CO)[C@@H](O)[C@H](O)[C@H]2O)=C1O [6-bPalm-AA-2G] |  | 6-bMyri-AA-2G and 6-bPalm-AA-2G significantly inhibited the activity more than 6-bDode-AA-2G | 
3 | CCCCCCCCCCCCCC(=O)OC[C@H](O)[C@H]1OC(=O)C(O[C@H]2O[C@H](CO)[C@@H](O)[C@H](O)[C@H]2O)=C1O [6-sMyri-AA-2G] |  | 6-sMyri-AA-2G and 6-sPalm-AA-2G significantly inhibited the activity more than 6-sDode-AA-2G | 
4 | CCCCCCC(CCCCCC)C(=O)OC[C@H](O)[C@H]1OC(=O)C(O[C@H]2O[C@H](CO)[C@@H](O)[C@H](O)[C@H]2O)=C1O [6-bMyri-AA-2G] |  | 6-bMyri-AA-2G and 6-bPalm-AA-2G significantly inhibited the activity more than 6-bDode-AA-2G | 
5 | CCCCCCCCCCCCCCCC(=O)OC[C@H](O)[C@H]1OC(=O)C(O)=C1O [6-Palm-AA, 6-O-palmitoyl-L-AA] | 194 |  | 
6 | CCCCCCCCCCCCCCCC(=O)OC[C@H](O)[C@H]1OC(=O)C(O[C@H]2O[C@H](CO)[C@@H](O)[C@H](O)[C@H]2O)=C1O [6-sPalm-AA-2G, 2-O-α-D-Glucopyranosyl-6-O-hexadecanoyl-L-ascorbic acid] | 22 |  | 
7 | O=C(O)c1cc(=O)c2c(OCC(O)COc3cccc4oc(C(=O)O)cc(=O)c34)cccc2o1 [DSCG, Cromolyn sodium salt] |  |  | Morgan-Elson colorimetric hyaluronidase assay, positive control [3]: Cromolyn sodium salt (DSCG), which is used clinically as an anti-allergy drug, was used as a positive control.
